In series [1] the target is T1, Lutropin-choriogonadotropic hormone receptor (Homo sapiens, UniProt P22888). Briefly: Negative allosteric modulation of human luteinizing hormone receptor assessed as Emax for Org 43553-induced agonist activity at 0.84 nM to 17 uM preincubated for 20 mins followed by 16 times EC80 of agonist addition and measured after 60 mins by cell based TR-FRET assay relative to control. Conditions: at 0.00084 to 17 µM. On the technique in general: Time-resolved FRET reads energy transfer from a long-lived donor to a nearby acceptor.

The subject of series [2] is Rattus norvegicus. Briefly: Downregulation of human luteinizing hormone-induced COX-2 mRNA expression in cetrorelix-treated iv dosed female rat after 2 hrs by Taqman probe based RT-PCR analysis. The series is classed as functional, organism-based.
Series [3] in a line: Plasma concentration in female rat at 4.5 to 72 mg/kg, po administered once daily for 8 days and measured on day 8. Format: ADME, organism-based.
In series [4] the target is T1, Lutropin-choriogonadotropic hormone receptor. In words: Negative allosteric modulation of human luteinizing hormone receptor assessed as Emax for Org 43553-induced agonist activity at 0.84 nM to 17 uM preincubated for 20 mins followed by 1 times EC80 of agonist addition and measured after 60 mins by cell based TR-FRET assay relative to control.
A short description of series [5]: Fraction unbound in female rat at 4.5 to 72 mg/kg, po administered once daily for 8 days. Format: ADME, organism-based. Conditions: in vivo.
The target in series [6] is T1, Lutropin-choriogonadotropic hormone receptor. Briefly: Negative allosteric modulation of human luteinizing hormone receptor assessed as Emax for Org 43553-induced agonist activity at 0.84 nM to 17 uM preincubated for 20 mins followed by 10 times EC80 of agonist addition and measured after 60 mins by cell based TR-FRET assay relative to control.

T1 sequence (P22888 whole entry): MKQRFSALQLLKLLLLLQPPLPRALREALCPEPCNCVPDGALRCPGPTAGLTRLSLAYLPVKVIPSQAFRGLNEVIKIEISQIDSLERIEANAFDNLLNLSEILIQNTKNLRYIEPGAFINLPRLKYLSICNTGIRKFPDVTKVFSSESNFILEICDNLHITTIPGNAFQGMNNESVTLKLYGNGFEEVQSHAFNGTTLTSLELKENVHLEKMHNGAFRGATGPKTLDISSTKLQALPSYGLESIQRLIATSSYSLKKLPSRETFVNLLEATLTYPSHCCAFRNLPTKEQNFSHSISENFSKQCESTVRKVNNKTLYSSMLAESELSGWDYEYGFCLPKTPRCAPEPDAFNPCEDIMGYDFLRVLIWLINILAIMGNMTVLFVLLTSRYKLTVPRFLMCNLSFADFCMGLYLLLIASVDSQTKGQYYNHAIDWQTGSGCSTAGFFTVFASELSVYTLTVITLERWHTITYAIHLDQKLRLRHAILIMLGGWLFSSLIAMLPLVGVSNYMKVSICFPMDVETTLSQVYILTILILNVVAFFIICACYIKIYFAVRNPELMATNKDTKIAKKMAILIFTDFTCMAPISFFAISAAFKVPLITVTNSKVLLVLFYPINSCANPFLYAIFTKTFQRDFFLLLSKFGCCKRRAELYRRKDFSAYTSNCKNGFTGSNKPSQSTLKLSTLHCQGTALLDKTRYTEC

By Emax is commonly meant the greatest response seen or fitted, relative to the assay's reference. The term fraction unbound denotes the share of the substance not bound to proteins or other matrix. Higher therefore signals weak binding. As for `O=C(Nc1ccc(Oc2ccc(F)cc2)cc1)N1CCc2ncccc2[C@@H]1c1ccc(Cl)cc1`, the figures for the Emax in series [1], in series [4] and in series [6] were 102%, 104% and 102%, respectively. Further, the Activity entry in series [2] was “Dose-dependent effect”. The molecule further registered a concentration at 192 h in series [3] of 4 to 39 µM. For the same molecule, the fraction unbound at 192 h in series [5] is 0.0024.

The values above are taken from ChEMBL document CHEMBL4321836, “Discovery of BAY-298 and BAY-899: Tetrahydro-1,6-naphthyridine-Based, Potent, and Selective Antagonists of the Luteinizing Hormone Receptor Which Reduce Sex Hormone Levels in Vivo” (J Med Chem, 2019).
